Measurements published in PubChem BioAssay AID1959 (Broad Institute, 2009).
Activity calls are given as the source filed them.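 How the source made its calls: active means growth-inhibition EC50 no more than tenfold above the top tested dose; inconclusive means flat fit between 30% and 70% inhibition, or unreliable fit; inactive means EC50 more than tenfold above the top tested dose.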

System: E. coli NEB5alpha growth, BacTiter-Glo luminescence, 4 h
Assay: antibacterial activity against E. coli NEB5alpha – luminescence, counter-screen for MEX-5/POS-1 RNA-binding inhibitor project, dose response (AID 1959);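 further: pUC19-transformed ampicillin-resistant cells grown in LB with ampicillin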

Compound | EC50
O/C=c1\ccc2cccc3nc(C(F)(F)F)nc1c23 | > 11 µM (inactive)
Cc1cc(CC(C)C)n(-c2nc3ccccc3c(=O)n2OCc2ccccc2)n1 | > 11 µM (inactive)
COc1ccc(C(=O)Nc2cc(C(C)=O)c(/C=C/N(C)C)oc2=O)cc1 | > 11 µM (inactive)
O=S(=O)(Nc1ccc(O)c2ccccc12)c1ccc(Br)cc1 | > 11 µM (inactive)
O=C(NNS(=O)(=O)c1ccc([N+](=O)[O-])cc1)C(=O)Nc1cccc(C(=O)O)c1 | > 11 µM (inactive)
COc1cc(NC(=O)CSc2nnc3ccc(-c4ccncc4)nn23)cc(OC)c1 | > 11 µM (inactive)
Cc1ccc(S(=O)(=O)N2CCOCC2)cc1C(=O)Nc1ccc(S(=O)(=O)Nc2nccs2)cc1 | > 11 µM (inactive)
O=c1[nH]c(=S)[nH]c2c1C(c1ccc(Br)cc1)c1c([nH]c(=S)[nH]c1=O)O2 | > 11 µM (inactive)
COc1ccc(C2C(C(=O)c3cccs3)=C(O)C(=O)N2c2nncs2)cc1 (stereo not given) | > 11 µM (inactive)
COc1ccc(S(=O)(=O)NNC(=O)C(=O)NNc2ccccn2)cc1 | > 11 µM (inactive)
Cc1ccc2[nH]c(=O)c(CN(CCO)Cc3nnnn3CCc3ccccc3)cc2c1 | > 11 µM (inactive)
CSCC(C)N1CCC(N2CCC(C(=O)NCc3ccccn3)CC2)CC1 (stereo not given) | > 11 µM (inactive)
O=C1NC(=S)/C(=C\c2ccc(-c3ccccc3Cl)o2)S1 | > 11 µM (inactive)
O=C1Nc2cc(Cl)cnc2N2CCCC12 (stereo not given) | > 11 µM (inactive)
N#Cc1c(N)n(-c2ccc(C(=O)O)cc2)c2nc3ccccc3nc12 | > 11 µM (inactive)
O=C(N=C1SC2CS(=O)(=O)CC2N1c1ccccc1)C1CC1 (stereo not given) | > 11 µM (inactive)
CCCCc1ccc(/C=C2\C(=O)ON=C2c2ccccc2)s1 | > 11 µM (inactive)
c1ccc(-c2cn3nc4c(nc3n2)CCCC4)cc1 | > 11 µM (inactive)
O=S(=O)(c1ccccc1)N1CCC(O)(CSc2ccc(Cl)cc2)CC1 | > 11 µM (inactive)
COc1ccc(C2=CC3=C(Br)C(=O)C(C)(OC(=O)c4cccs4)C(=O)C3=CO2)cc1 (stereo not given) | > 11 µM (inactive)
CC(=O)c1ccc2c(c1)C1C=CCC1C(c1ccncc1)N2 (stereo not given) | > 11 µM (inactive)
CCOC(=O)c1ccc(-n2c(CCC(=O)O)ccc2-c2ccc(F)cc2)cc1 | > 11 µM (inactive)
CN1C(=O)NC(=O)/C(=C\c2ccc([N+](=O)[O-])o2)C1=O | > 11 µM (inactive)
Cc1nc(S/C(C(=O)O)=C2/C(=O)Nc3ccccc32)n[nH]1 | > 11 µM (inactive)

Compound | EC50
O=C(/C=C/c1ccco1)NC(=S)Nc1ccc(C(=O)O)cc1 | > 11 µM (inactive)
O=c1[nH]c(=O)n(-c2ccc(Cl)cc2)c(O)c1C=NCCN1CCCCC1 | > 11 µM (inactive)
CCOc1cc(C2C(C#N)=C(N)OC(C)=C2C(C)=O)cc(Br)c1O (stereo not given) | > 11 µM (inactive)
COc1ccc(CCNC(=O)c2cc3c(=O)n4cccc(C)c4nc3n(CCCN3CCOCC3)c2=N)cc1 | > 11 µM (inactive)
COc1ccc(NC(=O)c2sc3nc(-c4cccnc4)ccc3c2N)cc1 | > 11 µM (inactive)
COc1cc(/C=N/c2oc(-c3ccccc3)cc2C#N)ccc1O | > 11 µM (inactive)
O=C(CCSc1nc2ccccc2s1)N/N=C/c1c(O)ccc2ccccc12 | > 11 µM (inactive)
COC(=O)C1=C(C)N=C2SC(C#N)=C(N)N2C1c1cccc(OC)c1 (stereo not given) | > 11 µM (inactive)
Cc1ccc(Oc2nc(-c3ccccn3)nc3ccccc23)cc1 | > 11 µM (inactive)
O=[N+]([O-])c1ccc(N=Nc2ncc[nH]2)cc1 | > 11 µM (inactive)
O=c1[nH]nc(CNc2ccc(O)cc2)c2ccccc12 | > 11 µM (inactive)
O=C(O)CCC(=O)NNc1nc(-c2ccccc2)c2cc(Cl)ccc2n1 | > 11 µM (inactive)
CCc1ccc(/C=C2\Oc3c(ccc(O)c3CN3CCN(CCO)CC3)C2=O)cc1 | > 11 µM (inactive)
CCOC(=O)Cn1c(=O)c(-c2cc(Br)ccc2N)nc2ccccc21 | > 11 µM (inactive)
Cc1ccccc1-c1ccc(/C=C2/SC(N3CCOCC3)=NC2=O)o1 | > 11 µM (inactive)
Cn1nc(C(F)(F)F)cc1-c1ccc(/C=C(\C#N)C(=O)c2ccccc2)s1 | > 11 µM (inactive)
O=C(O)c1ccccc1N/N=C/c1c(Sc2nnnn2-c2ccccc2)nc2ccccn2c1=O | > 11 µM (inactive)
CC(C)(C)C(=O)c1sc2nc(-c3cccs3)cc(C(F)(F)F)c2c1N | > 11 µM (inactive)
COc1ccc(S(=O)(=O)C(C#N)c2nc3ccccc3nc2N2CCC(C)CC2)cc1 (stereo not given) | > 11 µM (inactive)
CCOC(=O)C1=C(C)OC(N)=C(C#N)C1c1ccc(O)c(OC)c1 (stereo not given) | > 11 µM (inactive)
N#Cc1cc(NC(=O)c2ccc(F)cc2)c(=O)n2c1[nH]c1ccccc12 | > 11 µM (inactive)
Cc1ccc(S(=O)(=O)Nc2ccccc2F)cc1C(=O)NNC(=O)c1ccccc1O | > 11 µM (inactive)
NC(=O)c1cccc(N=Cc2cc(Cl)cc(Cl)c2O)c1 | > 11 µM (inactive)
CC(=O)Oc1oc(-c2ccccc2)nc1C=Nc1ccc(N(C)C)cc1 | > 11 µM (inactive)

Compound | EC50
c1ccc2oc(CCc3nc4ccccc4o3)nc2c1 | > 11 µM (inactive)
O=C(NCCOc1ccccc1)C1Nc2ccc(OC(F)(F)F)cc2C2C=CCC12 (stereo not given) | > 11 µM (inactive)
CSc1nnc(N2C(=O)C(O)=C(C(=O)c3ccco3)C2c2ccc(F)cc2)s1 (stereo not given) | > 11 µM (inactive)
N#CCC(N)=C(C#N)C#N | > 11 µM (inactive)
COc1ccc(C(=O)Nc2nc(-c3ccc([N+](=O)[O-])cc3)c(-c3ccccc3)s2)cc1 | > 11 µM (inactive)
O=c1ccc2[n+]([O-])c3ccc(O)cc3oc-2c1 | > 11 µM (inactive)
CC1CCN(c2nc3ccccc3nc2C(C#N)C(=O)NC2CCCCC2)CC1 (stereo not given) | > 11 µM (inactive)
Cc1c(N=Cc2c(O)n(Cc3ccco3)c(=O)[nH]c2=O)c(=O)n(-c2ccccc2)n1C | > 11 µM (inactive)
CCn1c2ccccc2c(=O)c2ccccc21 | > 11 µM (inactive)
CCCn1c(O)c(CN2CCCCC2)c(C)c(C#N)c1=O | > 11 µM (inactive)
C=CCOc1ccc(C2C(C(=O)c3ccco3)=C(O)C(=O)N2c2nnc(C)s2)cc1 (stereo not given) | > 11 µM (inactive)
COC(=O)c1c(=O)n(O)c2ccc(OC)cc2[n+]1[O-] | > 11 µM (inactive)
CCC1(c2ccccc2)NC(=O)N(CC(=O)NCc2ccc(F)cc2)C1=O (stereo not given) | > 11 µM (inactive)
C=CCn1ccc(=NC=C(C#N)C#N)c2ccccc21 | > 11 µM (inactive)
COc1ccc(-c2onc3ccc(C(C)=O)cc23)cc1 | > 11 µM (inactive)
CCCN1CC=C2C(C#N)=C(N)C(C#N)(C#N)C(c3cc(OC)ccc3OC)C2C1 (stereo not given) | > 11 µM (inactive)
Oc1[nH]c2ccccc2c1N=Nc1ccccc1 | > 11 µM (inactive)
Cc1cccc(C)c1NC(=O)NN=C1CCCCC1 | > 11 µM (inactive)
Cc1nnc(N2C(=O)C(O)=C(C(=O)c3ccco3)C2c2cccc3ccccc23)s1 (stereo not given) | > 11 µM (inactive)
Cc1cc(C=C2C(=O)NC(=O)NC2=O)c(C)n1-c1cccnc1 | > 11 µM (inactive)
CCOc1cc(/C=C2\C(=O)NN(c3ccccc3)C2=O)cc([N+](=O)[O-])c1O | > 11 µM (inactive)
O=C(O)c1cc(-c2ccc(/C=N/Nc3ccc([N+](=O)[O-])cn3)o2)ccc1Cl | > 11 µM (inactive)
